Measured values taken from patent US20100303758A1, “Novel Glucocorticoid Receptor Agonists” (priority 2009, published 2010).
pEC50: −log10 of the molar value.

Key:
human GR = target: T1, human GR (Homo sapiens, UniProt P04150); experiment: GR agonist potency, MMTV-luciferase reporter in SW1353 cells; format: cell-based; conditions: human chondrosarcoma cell-line SW1353 stably transfected with MMTV-luciferase reporter; approx. 18 hours; data as percentage of 1 μM dexamethasone positive control
T1 construct: SW1353 naturally expresses human GR; endogenous in cells; host or cells: human chondrosarcoma cell-line SW1353 stably transfected with an MMTV-luciferase reporter construct
T1 sequence (P04150 1-777): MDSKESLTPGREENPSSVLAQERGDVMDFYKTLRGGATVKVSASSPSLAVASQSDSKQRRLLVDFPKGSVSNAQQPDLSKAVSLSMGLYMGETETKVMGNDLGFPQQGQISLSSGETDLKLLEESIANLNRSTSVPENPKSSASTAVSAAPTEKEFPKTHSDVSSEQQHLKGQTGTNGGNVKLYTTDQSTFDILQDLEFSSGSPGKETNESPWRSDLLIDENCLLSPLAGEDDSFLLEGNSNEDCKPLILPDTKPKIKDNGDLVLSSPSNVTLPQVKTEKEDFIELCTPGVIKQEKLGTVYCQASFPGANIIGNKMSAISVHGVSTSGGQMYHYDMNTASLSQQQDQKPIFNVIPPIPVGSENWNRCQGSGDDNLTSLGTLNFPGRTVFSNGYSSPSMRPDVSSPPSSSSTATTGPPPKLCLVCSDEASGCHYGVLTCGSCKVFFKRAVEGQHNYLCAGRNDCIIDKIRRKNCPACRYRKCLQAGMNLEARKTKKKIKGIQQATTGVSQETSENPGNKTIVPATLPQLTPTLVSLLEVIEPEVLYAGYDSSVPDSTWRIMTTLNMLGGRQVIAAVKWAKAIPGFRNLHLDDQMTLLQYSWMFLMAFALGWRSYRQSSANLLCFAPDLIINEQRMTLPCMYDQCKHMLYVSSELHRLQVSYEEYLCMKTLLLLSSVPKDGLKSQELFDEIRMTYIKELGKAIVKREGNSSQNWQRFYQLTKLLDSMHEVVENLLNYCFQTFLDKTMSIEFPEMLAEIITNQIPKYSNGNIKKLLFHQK
Description: Glucococorticoid receptor (GR) agonist potency was determined in the human chondrosarcoma cell-line SW1353 stably transfected with an MMTV-luciferase reporter construct. SW1353 naturally expresses human GR, which on binding a glucocorticoid agonist activates glucocorticoid response elements within the MMTV promoter, driving expression of the luciferase gene.
Frozen SW1353 cells were revived in DMEM medium, without sodium pyruvate or phenol red, supplemented with 2 mM L-glutamine, 1 μg/ml insulin, 2 mg/ml lactalbumin hydrosylate and 0.5 μg/ml ascorbate. Cells were seeded at approximately 5000 cells/well (35 μl/well) in 384-well clear bottom, tissue culture treated plates. Steroid dose-response dilutions were prepared in steroid diluent (PBS containing 2.5% (v/v) DMSO and 0.05% (v/v) pluronic detergent) and 5 μl added to each well. The volume was made up to 50 μl per well with steroid diluent. Positive control wells contained 1 μM dexamethasone. Plates were incubated for approximately 18 hours at 37° C. in an air/5% CO2 atmosphere in a humidified incubator before Britelite reagent (10 μl; Perkin-Elmer) was added to each well. Each plate was incubated for 2 minutes in the dark and luminescence quantified using a LJL Biosystems Analyst luminometer. Data for test compounds (expressed as percentage of the dexamethasone positive control) were used to construct dose response curves from which EC50 values were estimated.

[1] = Inhibition of TNF-α release from LPS stimulated isolated human PBMC; format: cell-based; conditions: Homo sapiens, PBMC, read-out: IC50 (nM) for inhibition of TNF-α release
Description: The anti-inflammatory activity of the compounds against human leukocytes in vitro was also evaluated by determining inhibition of tumour necrosis factor-α (TNF-α) release from lipopolysaccharide (LPS) stimulated isolated human peripheral mononuclear cells (PBMC).
Peripheral venous blood from healthy, non-medicated donors was collected using ethylenediaminetetraacetic acid (EDTA) as the anti-coagulant. For PBMC preparation, samples of blood were diluted 1:1 with sterile phosphate buffered saline and then separated using ACCUSPIN™ System-Histopaque®-1077 tubes (Sigma-Aldrich, St Louis, Mo.), centrifuged at 400 g for 35 minutes. Buffy coat cells were removed into PBS, centrifuged at 200 g for 10 minutes and re-suspended in PBMC assay buffer (Hanks Balanced Salt Solution, 0.28% [w/v] 4-[2-hydroxyethyl]-1-piperazineethanesulfonic acid [HEPES], 0.01% [w/v] low-endotoxin bovine serum albumin [BSA]. A differential white cell count was performed and PBMC's diluted to 1×10^6 lymphocytes per ml in PBMC assay buffer.
Test compounds were dissolved in DMSO and diluted in PBMC assay buffer (final DMSO concentration 1%) to cover an appropriate concentration range, e.g 0.001 nM to 10000 nM. Samples of test compound solution or vehicle (20 μl) were added into 96-well tissue culture treated plates (Corning) and PBMC (160 μl) added to each well. The assay mixtures were incubated at 37° C. for 1 h in a humidified incubator containing an atmosphere of air supplemented with 5% CO2 before adding LPS (20 μl of 100 ng/ml for PBMC). Plates were returned to the incubator for a further 18 hours, and then centrifuged before recovery of samples of supernatant. TNF-α in the samples was determined using an enzyme-linked immunosorbent assay (ELISA) (Invitrogen kit no CHC-1754; Invitrogen Carlsbad, Calif.) and following the manufacturers instructions. Dose response curves were constructed from which IC50 values were calculated.

Compound	pEC50 (human GR)	IC50 [1] [nM]
C[C@]12C=CC(=O)C=C1CC[C@H]1[C@@H]3CC[C@](OC(=O)c4ccc(Cc5ccccc5)cc4)(C(=O)SCF)[C@@]3(C)C[C@H](O)[C@@]12F [Example 22, (11beta,17alpha)-9-fluoro-17-{[(fluoromethyl)thio]carbonyl}-11-hydroxy-3-oxoandrosta-1,4-dien-17-yl 4-benzylbenzoate]	7.16	0.087
C[C@]12C=CC(=O)C=C1CC[C@H]1[C@@H]3CC[C@](OC(=O)c4ccc(Sc5ccccc5)cc4)(C(=O)SCCl)[C@@]3(C)C[C@H](O)[C@@]12F [Example 30, (11beta,17alpha)-17-{[(chloromethyl)thio]carbonyl}-9-fluoro-11-hydroxy-3-oxoandrosta-1,4-dien-17-yl 4-(phenylthio)benzoate]	7.69	0.256
C[C@]12C=CC(=O)C=C1CC[C@H]1[C@@H]3CC[C@](OC(=O)c4ccc(Oc5ccccc5)cc4)(C(=O)OCC#N)[C@@]3(C)C[C@H](O)[C@@]12F [Example 14, cyanomethyl(11beta,17alpha)-9-fluoro-11-hydroxy-3-oxo-17-[(4-phenoxybenzoyl)oxy]androsta-1,4-diene-17-carboxylate]	7.62	0.234
C[C@@H]1C[C@H]2[C@@H]3C[C@H](F)C4=CC(=O)C=C[C@]4(C)[C@@]3(F)[C@@H](O)C[C@]2(C)[C@@]1(OC(=O)c1ccc(Oc2ccc(Cl)c(O)c2)cc1)C(=O)OCC#N [Example 42, Cyanomethyl (6alpha,11beta,16alpha,17alpha)-17-{[4-(4-chloro-3-hydroxyphenoxy)benzoyl]oxy}-6,9-difluoro-11-hydroxy-16-methyl-3-oxoandrosta-1,4-diene-17-carboxylate]	7.61	0.443
C[C@]12C=CC(=O)C=C1CC[C@H]1[C@@H]3CC[C@](OC(=O)c4ccc(Oc5ccc(O)nc5)cc4)(C(=O)OCC#N)[C@@]3(C)C[C@H](O)[C@@]12F [Example 36, cyanomethyl (11beta,17alpha)-9-fluoro-11-hydroxy-17-({4-[(6-hydroxypyridin-3-yl)oxy]benzoyl}-oxy)-3-oxoandrosta-1,4-diene-17-carboxylate]	7.79	0.167
C[C@]12C=CC(=O)C=C1CC[C@H]1[C@@H]3CC[C@](OC(=O)c4ccc(-c5ccccc5)cc4)(C(=O)OCC#N)[C@@]3(C)C[C@H](O)[C@@]12F [Example 7, cyanomethyl (11beta,17alpha)-17-[(biphenyl-4-ylcarbonyl)oxy]-9-fluoro-11-hydroxy-3-oxoandrosta-1,4-diene-17-carboxylate]	7.40	0.555
C[C@]12C=CC(=O)C=C1[C@@H](F)C[C@H]1[C@@H]3CC[C@](OC(=O)c4ccc(CSc5ccc(O)cc5)cc4)(C(=O)OCC#N)[C@@]3(C)C[C@H](O)[C@@]12F [Example 11, cyanomethyl(6alpha,11beta,17alpha)-6,9-difluoro-11-hydroxy-17-[(4-{[(4-hydroxyphenyl)thio]methyl}benzoyl)oxy]-3-oxoandrosta-1,4-diene-17-carboxylate]	7.52	0.735
C[C@]12C=CC(=O)C=C1CC[C@H]1[C@@H]3CC[C@](OC(=O)c4ccc(Sc5cccc(O)c5)cc4)(C(=O)OCC#N)[C@@]3(C)C[C@H](O)[C@@]12F [Example 15, cyanomethyl(11beta,17alpha)-9-fluoro-11-hydroxy-17-({4-[(3-hydroxyphenyl)thio]-benzoyl}oxy)-3-oxoandrosta-1,4-diene-17-carboxylate]	7.45	0.164
C[C@]12C=CC(=O)C=C1CC[C@H]1[C@@H]3CC[C@](OC(=O)c4ccc(Sc5ccc(O)c(Cl)c5)cc4)(C(=O)OCC#N)[C@@]3(C)C[C@H](O)[C@@]12F [Example 20, cyanomethyl (11beta,17alpha)-17-({4-[(3-chloro-4-hydroxyphenyl)thio]-benzoyl}oxy)-9-fluoro-11-hydroxy-3-oxoandrosta-1,4-diene-17-carboxylate]	7.41	0.29
CSc1cccc(Sc2ccc(C(=O)O[C@]3(C(=O)OCC#N)[C@H](C)C[C@H]4[C@@H]5C[C@H](F)C6=CC(=O)C=C[C@]6(C)[C@@]5(F)[C@@H](O)C[C@@]43C)cc2)c1 [Example 49, Cyanomethyl (6alpha,11beta,16alpha, 17alpha)-6,9-difluoro-11-hydroxy-16-methyl-17-[(4-{[3-(methylthio)phenyl]thio}benzoyl)oxy]-3-oxoandrosta-1,4-diene-17-carboxylate]	7.04	0.738
C[C@@H]1C[C@H]2[C@@H]3C[C@H](F)C4=CC(=O)C=C[C@]4(C)[C@@]3(F)[C@@H](O)C[C@]2(C)[C@@]1(OC(=O)c1ccc(Oc2ccc(O)c(Cl)c2)cc1)C(=O)OCC#N [Example 45, cyanomethyl(6alpha,11beta,16alpha,17alpha)-17-{[4-(3-chloro-4-hydroxyphenoxy)benzoyl]oxy}-6,9-difluoro-11-hydroxy-16-methyl-3-oxoandrosta-1,4-diene-17-carboxylate]	7.67	0.155
CSc1cccc(Oc2ccc(C(=O)O[C@]3(C(=O)OCC#N)[C@H](C)C[C@H]4[C@@H]5C[C@H](F)C6=CC(=O)C=C[C@]6(C)[C@@]5(F)[C@@H](O)C[C@@]43C)cc2)c1 [Example 47, Cyanomethyl (6alpha,11beta,16alpha, 17alpha)-6,9-difluoro-11-hydroxy-16-methyl-17-({4-[3-(methylthio)phenoxy]benzoyl}oxy)-3-oxoandrosta-1,4-diene-17-carboxylate]	7.60	0.731
C[C@@H]1C[C@H]2[C@@H]3C[C@H](F)C4=CC(=O)C=C[C@]4(C)[C@@]3(F)[C@@H](O)C[C@]2(C)[C@@]1(OC(=O)c1ccc(Oc2ccc(Cl)c(O)c2)cc1)C(=O)OCF [Example 41, Fluoromethyl (6alpha,11beta,16alpha,17alpha)-17-{[4-(4-chloro-3-hydroxyphenoxy)benzoyl]oxy}-6,9-difluoro-11-hydroxy-16-methyl-3-oxoandrosta-1,4-diene-17-carboxylate]	8.11	0.032
CSc1ccc(Sc2ccc(C(=O)O[C@]3(C(=O)OCC#N)[C@H](C)C[C@H]4[C@@H]5C[C@H](F)C6=CC(=O)C=C[C@]6(C)[C@@]5(F)[C@@H](O)C[C@@]43C)cc2)cc1 [Example 46, Cyanomethyl (6alpha,11beta,16alpha,17alpha)-6,9-difluoro-11-hydroxy-16-methyl-17-[(4-{[4-(methylthio)phenyl]thio}benzoyl)oxy]-3-oxoandrosta-1,4-diene-17-carboxylate]	7.35	0.372
